In patent US20250179032A1, “HETEROCYCLIC INHIBITORS OF GLUT9 FOR TREATMENT OF DISEASE” (HORIZON THERAPEUTICS IRELAND DAC, priority 2022, published 2025):
pIC50: −log10 of the molar value.

What follows are compounds tested against T1, H. sapiens SLC2A9 variant 2 (GLUT9B) (Homo sapiens, UniProt Q9NRM0) (assay: GLUT9 functional assay: uric acid uptake in HEK293T cells, allantoin formation by MS/MS as proxy of GLUT9B inhibition). Details: 15 minute assay; HEK293T cells stably expressing GLUT9B and transiently A. oryzae uricase; uric acid 0.3 mM, 37° C.; read-out: 15 min IC50.
T1 sequence (Q9NRM0 1-511 isoform Q9NRM0-2): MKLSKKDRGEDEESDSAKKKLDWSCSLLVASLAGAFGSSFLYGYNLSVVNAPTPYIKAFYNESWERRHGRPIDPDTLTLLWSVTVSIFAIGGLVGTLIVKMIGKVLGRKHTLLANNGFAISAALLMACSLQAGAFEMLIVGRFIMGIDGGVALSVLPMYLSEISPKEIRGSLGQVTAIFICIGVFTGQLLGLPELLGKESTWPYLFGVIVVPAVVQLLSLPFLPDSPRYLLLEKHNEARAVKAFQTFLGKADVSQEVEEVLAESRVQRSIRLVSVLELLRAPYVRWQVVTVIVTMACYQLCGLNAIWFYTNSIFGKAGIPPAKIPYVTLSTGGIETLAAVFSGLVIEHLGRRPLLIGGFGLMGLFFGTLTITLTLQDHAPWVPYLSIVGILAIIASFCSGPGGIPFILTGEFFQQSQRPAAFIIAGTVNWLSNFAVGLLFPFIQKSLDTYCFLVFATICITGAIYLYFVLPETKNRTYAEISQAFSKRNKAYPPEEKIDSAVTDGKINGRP
Type: cell-based
How it was run: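 Inhibition of GLUT9B-mediated urate uptake read as reduced allantoin formation, measured by MS/MS against allantoin standards in HEK293T matrix with log-logistic fitting. Stable GLUT9B HEK293T cells carrying transfected A. oryzae uricase were incubated 15 or 60 min at 37° C with uric acid at Km (0.3 mM), pH 7.4 gluconate buffer.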

Row | pIC50 | Structure (SMILES)
1 | 5.70 to 6.30 | COCCNc1ccc(-c2ncc(CCC(F)(F)F)nc2N2CCC(C(=O)O)CC2)cc1 [Compound 103, 1-(3-(4-((2-methoxyethyl)amino)phenyl)-6-(3,3,3-trifluoropropyl)pyrazin-2-yl)piperidine-4-carboxylic acid]
2 | 5.70 to 6.30 | COCCN(C)c1ccc(-c2ncc(CCC(F)(F)F)nc2N2CCC(C(=O)O)CC2)cc1 [Compound 104, 1-(3-(4-((2-methoxyethyl)(methyl)amino)phenyl)-6-(3,3,3-trifluoropropyl)pyrazin-2-yl)piperidine-4-carboxylic acid]
3 | < 5.70 | O=C(O)C1CCN(c2nc(CCC(F)(F)F)cnc2-c2ccncc2)CC1 [Compound 105, 1-(3-(pyridin-4-yl)-6-(3,3,3-trifluoropropyl)pyrazin-2-yl)piperidine-4-carboxylic acid]
4 | < 5.70 | CN(C)S(=O)(=O)N1CCN(c2nc(CCC(F)(F)F)cnc2-c2ccc3occc3c2)CC1 [Compound 106, 4-(3-(benzofuran-5-yl)-6-(3,3,3-trifluoropropyl)pyrazin-2-yl)-N,N-dimethylpiperazine-1-sulfonamide]
5 | > 6.30 | O=C(O)C1CCN(c2nc(CCCC(F)(F)F)cnc2-c2ccc3c(c2)CCO3)CC1 [Compound 107, 1-(3-(2,3-dihydrobenzofuran-5-yl)-6-(4,4,4-trifluorobutyl)pyrazin-2-yl)piperidine-4-carboxylic acid]
6 | > 6.30 | O=C(O)C1CCN(c2nc(CCCC(F)(F)F)cnc2-c2ccc3c(c2)OCO3)CC1 [Compound 108, 1-(3-(benzo[d][1,3]dioxol-5-yl)-6-(4,4,4-Trifluorobutyl)Pyrazin-2-yl)piperidine-4-carboxylic acid]
7 | 5.70 to 6.30 | O=C(O)C1CCN(c2nc(CCCC(F)(F)F)cnc2-c2ccc3ncoc3c2)CC1 [Compound 109, 1-(3-(benzo[d]oxazol-6-yl)-6-(4,4,4-trifluorobutyl)pyrazin-2-yl)piperidine-4-carboxylic acid]
8 | 5.70 to 6.30 | O=C(O)C1CCN(c2nc(CCCC(F)(F)F)cnc2-c2ccc3c(c2)OCCO3)CC1 [Compound 110, 1-(3-(2,3-dihydrobenzo[b][1,4]dioxin-6-yl)-6-(4,4,4-trifluorobutyl)pyrazin-2-yl)piperidine-4-carboxylic acid]
9 | > 6.30 | O=C(O)C1CCN(c2nc(CCCC(F)(F)F)cnc2-c2ccc(OCC3CC3)cc2)CC1 [Compound 111, 1-(3-(4-(cyclopropylmethoxy)phenyl)-6-(4,4,4-trifluorobutyl)pyrazin-2-yl)piperidine-4-carboxylic acid]
10 | 5.70 to 6.30 | O=C(O)C1CCN(c2nc(CCCC(F)(F)F)cnc2-c2ccc3c(c2)CCCO3)CC1 [Compound 112, 1-(3-(chroman-6-yl)-6-(4,4,4-trifluorobutyl)pyrazin-2-yl)piperidine-4-carboxylic acid]
11 | 5.70 to 6.30 | O=C(O)C1CCN(c2nc(CCCC(F)(F)F)cnc2-c2ccc(OC3CC3)cc2)CC1 [Compound 113, 1-(3-(4-cyclopropoxyphenyl)-6-(4,4,4-trifluorobutyl)pyrazin-2-yl)piperidine-4-carboxylic acid]
12 | 5.70 to 6.30 | O=C(O)C1CCN(c2nc(CCCC(F)(F)F)cnc2-c2ccc3c(c2)NCCO3)CC1 [Compound 114, 1-(3-(3,4-dihydro-2H-benzo[b][1,4]oxazin-6-y)-6-(4,4,4-trifluorobutyl)pyrazin-2-yl)piperidine-4-carboxylic acid]
13 | < 5.70 | O=C1COc2ccc(-c3ncc(CCCC(F)(F)F)nc3N3CCC(C(=O)O)CC3)cc2N1 [Compound 115, 1-(3-(3-oxo-3,4-dihydro-2H-benzo[b][1,4]oxazin-6-yl)-6-(4,4,4-trifluorobutyl)pyrazin-2-yl)piperidine-4-carboxylic acid]
14 | > 6.30 | O=C(O)C1CCN(c2nc(CCCC(F)(F)F)cnc2-c2cnc3occc3c2)CC1 [Compound 116, 1-(3-(furo[2,3-b]pyridin-5-yl)-6-(4,4,4-trifluorobutyl)pyrazin-2-yl)piperidine-4-carboxylic acid]

Same assay, conditions: 60 minute assay; HEK293T cells stably expressing GLUT9B and transiently A. oryzae uricase; uric acid 0.3 mM, 37° C.; read-out: 60 min IC50

Row | pIC50 | Structure (SMILES)
15 | > 6.30 | O=C(O)C1CCN(c2nc(CCCC(F)(F)F)cnc2-c2ccc3c(c2)OCO3)CC1 [Compound 108, 1-(3-(benzo[d][1,3]dioxol-5-yl)-6-(4,4,4-Trifluorobutyl)Pyrazin-2-yl)piperidine-4-carboxylic acid]
